Columns and labels:
[1] = system: interleukin 6 (IL-6); test: Anti-inflammatory effect: IL-6 release by keratinocytes stimulated by UV (ELISA, related to protein level); assay type: cell-based, human; conditions: positive control
Protocol: This test consists of evaluating the production of inflammatory mediators by human keratinocytes in response to irritant stress. The method is based on measuring the release rate of interleukin 6 (IL-6) by keratinocytes cultured in the presence of the ingredient and stimulated by UV light.
Five solutions are tested. Each is obtained by dilution in a culture medium and obtaining a final concentration of 1% ethanol. […] The second, third and fourth solutions differ in the concentration of the final residue (respectively 1.4 μg/mL, 3.5 μg/mL and 7.0 μg/mL). The fifth solution is dexamethasone (Dexa) (SIGMA Ref D1756) which is tested at 100 µM as a positive control.
On D0, 48 hours after seeding, the cells are rinsed with phosphate-buffered saline (PBS) and then exposed to UVB through the PBS. Immediately after irradiation, the PBS is replaced by the DMEM (Dulbecco's Modified Eagle Medium) test medium comprising the solution to be tested. The cells are returned to 37° C. and incubated for 24 hours.
On D1 (T 24 h), the incubation media are collected and the level of IL-6 is measured using the ELISA assay kit (IL-6 HIGH SENSITIVITY ELISA KIT, ENZO). At the same time, the corresponding cell layers are rinsed with Hank's Balanced Salt Solution (HBSS) and processed for cellular protein assay. A NaOH solution is added to each sample. After incubation, the cell extracts are collected and frozen at −20° C. to await assay with the BCA Protein Assay kit (PIERCE®).
The crude levels of IL-6 (pg per sample) are deduced by interpolation from the standard curve established with the IL-6 standard in the kit. The average of the IL-6 levels is calculated for each sample.
The protein level (μg per sample) is deduced by interpolation from the standard curve established with a bovine serum albumin standard in order to express the IL-6 level in relation to the average protein level. The average level is calculated for each sample.
The average IL-6 level is related to the average protein level. […]

[2] = system: PCi-SEB human sebocytes; test: Anti-sebum effect: intracellular neutral lipids (Nile Red test) in sebocytes, lipogenesis induced by linoleic acid; assay type: cell-based; conditions: positive control
Protocol: The aim of this test is to study the anti-sebum effect of the ingredient according to the invention using an in vitro cell model. An extract is prepared according to Example 2.
The procedure is as follows. PCi-SEB human sebocytes derived from induced pluripotent stem (iPS) cells are prepared. The amplification and the maturation of PCi-SEB sebocytes is achieved by incubation in SEB medium for amplification for 2 days then in supplemented SEB medium for maturation for 3 days. The sebocytes are incubated for 24 hours in the presence of the ingredient according to the invention. Lipogenesis is induced by the addition of linoleic acid, then the sebocytes are incubated for 48 hours in the presence of the ingredient according to the invention.
In order to verify efficacy, the following biomarkers are measured: namely, intracellular neutral lipids (Nile Red test) and cellular proteins (Pierce BCA test).
The experimental plan is as follows: • 1 batch (Control): untreated cells incubated in SEB medium (n=3) • 1 batch (EtOH control): untreated cells incubated in SEB medium+EtOH (0.125%)] (n=3) • 3 batches (Test element-treated): cells incubated in medium (SEB+EtOH (0.125%)) and treated with 3 concentrations of test element (n=3) • 1 batch [PC]: cells incubated in SEB medium and treated with TOFA (20 μM)
The ingredient according to the invention was tested at 3 concentrations: C1=5 μg/mL, C2=15 μg/mL and C3=30 μg/mL
The level of neutral lipids was measured in control sebocyte cultures then treated by staining the cells with Nile Red. The values (fluorescence intensity) were reported at the average cellular protein level.
The [Nile-Red] values are expressed in arbitrary units (fluorescence intensity (urf) per mg of cellular protein).

| Compound | Induced IL-6 ([1]; 100 μM, 24 h after UVB) | Induced IL-6 (%), with respect to IL-6 induced in the ethanol control ([1]; 100 μM, 24 h after UVB) | inhibition of UV-induced IL-6 release ([1]; same experimental conditions) | Neutral lipids - Nile Red, Mean, per mg of cellular protein ([2]; 20 μM) | Nile Red Test, Mean (fluorescence intensity) ([2]; 20 μM) | Lipogenic effect (%) ([2]; 20 μM, vs. EtOH control) | activity at 20 µM ([2]; Homo sapiens, read-out: Neutral lipids (% of controlEtOH)) |
| --- | --- | --- | --- | --- | --- | --- | --- |
| C[C@@H]1C[C@H]2[C@@H]3CCC4=CC(=O)C=C[C@]4(C)[C@@]3(F)[C@@H](O)C[C@]2(C)[C@@]1(O)C(=O)CO [Dexa, dexamethasone] | 105.10 pg/mg prot. | 8% | 92% | – | – | – | – |
| CCCCCCCCCCCCCCOc1ccc(C(=O)O)o1 [TOFA, 5-(tetradecyloxy)-2-furoic acid] | – | – | – | 7.01 URF/mg prot. | 1679 | −75% | 25% |

Source: patent publication US20260144740A1, “COSMETIC ACTIVE INGREDIENT DERIVED FROM A NON-VOLATILE FRACTION OF CANARIUM EXUDATE AND USES THEREOF” (FLORE SCOLA, priority 2022, published 2026)
